The assay deals with T1, Pituitary adenylate cyclase-activating polypeptide (Homo sapiens, UniProt P18509).
T1 sequence (P18509 whole entry): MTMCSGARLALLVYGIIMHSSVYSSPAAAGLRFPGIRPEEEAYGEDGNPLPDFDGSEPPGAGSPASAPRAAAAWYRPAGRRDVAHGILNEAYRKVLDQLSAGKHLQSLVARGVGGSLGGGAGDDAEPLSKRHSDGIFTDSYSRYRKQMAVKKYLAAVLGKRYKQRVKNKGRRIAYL

Non-standard residues stand in square brackets, D forms with d. Residues, ends and D or L forms follow the SMILES beside them. ξ: configuration not given here. Ile(3ξ) = CCC(C)[C@H](N)C(=O)O

For the compound `CCC(C)[C@H](NC(=O)CNC(=O)[C@@H](N)CC(=O)O)C(=O)N[C@@H](Cc1ccccc1)C(=O)N[C@H](C(=O)N[C@@H](CC(=O)O)C(=O)N[C@@H](CO)C(=O)N[C@@H](Cc1ccc(O)cc1)C(=O)N[C@@H](CO)C(=O)N[C@@H](CCCN=C(N)N)C(=O)N[C@@H](Cc1ccc(O)cc1)C(=O)N[C@@H](CCCN=C(N)N)C(=O)N[C@@H](CCCCN)C(=O)N[C@@H](CCC(N)=O)C(=O)N[C@@H](CCSC)C(=O)N[C@@H](C)C(=O)N[C@H](C(=O)N[C@@H](CCCCN)C(=O)N[C@@H](CCCCN)C(=O)N[C@@H](Cc1ccc(O)cc1)C(=O)N[C@@H](CC(C)C)C(=O)N[C@@H](C)C(=O)N[C@@H](C)C(=O)N[C@H](C(=O)N[C@@H](CC(C)C)C(=O)NCC(=O)N[C@@H](CCCCN)C(=O)N[C@@H](CCCN=C(N)N)C(=O)N[C@@H](Cc1ccc(O)cc1)C(=O)N[C@@H](CCCCN)C(=O)N[C@@H](CCC(N)=O)C(=O)N[C@@H](CCCN=C(N)N)C(=O)N[C@H](C(=O)N[C@@H](CCCCN)C(=O)N[C@@H](CC(N)=O)C(=O)N[C@@H](CCCCN)C(N)=O)C(C)C)C(C)C)C(C)C)[C@@H](C)O` (some centres not stated) [PACAP(3-38)] (H-DG[Ile(3ξ)]FTDSYSRYRKQMAVKKYLAAVLGKRYKQRVKNK-NH2), affinity was put at a Ki of 29 nM.

Consider `CCC(C)[C@H](NC(=O)CN)C(=O)N[C@@H](Cc1ccccc1)C(=O)N[C@H](C(=O)N[C@@H](CC(=O)O)C(=O)N[C@@H](CO)C(=O)N[C@@H](Cc1ccc(O)cc1)C(=O)N[C@@H](CO)C(=O)N[C@@H](CCCN=C(N)N)C(=O)N[C@@H](Cc1ccc(O)cc1)C(=O)N[C@@H](CCCN=C(N)N)C(=O)N[C@@H](CCCCN)C(=O)N[C@@H](CCC(N)=O)C(=O)N[C@@H](CCSC)C(=O)N[C@@H](C)C(=O)N[C@H](C(=O)N[C@@H](CCCCN)C(=O)N[C@@H](CCCCN)C(=O)N[C@@H](Cc1ccc(O)cc1)C(=O)N[C@@H](CC(C)C)C(=O)N[C@@H](C)C(=O)N[C@@H](C)C(=O)N[C@H](C(=O)N[C@@H](CC(C)C)C(N)=O)C(C)C)C(C)C)[C@@H](C)O` (some centres not stated) [PACAP(4-27)] (H-G[Ile(3ξ)]FTDSYSRYRKQMAVKKYLAAVL-NH2), for which the affinity corresponds to a Ki of 500 nM. Compared with the last compound, the Ki is about 17-fold higher. Under `CSCC[C@H](NC(=O)[C@H](CCC(N)=O)NC(=O)[C@H](CCCCN)NC(=O)[C@H](CCCN=C(N)N)NC(=O)[C@H](Cc1ccc(O)cc1)NC(=O)[C@H](CCCN=C(N)N)NC(=O)[C@H](CO)NC(=O)[C@H](Cc1ccc(O)cc1)NC(=O)[C@H](CO)NC(=O)[C@H](CC(=O)O)NC(=O)[C@@H](NC(=O)[C@@H](N)Cc1ccccc1)[C@@H](C)O)C(=O)N[C@@H](C)C(=O)N[C@H](C(=O)N[C@@H](CCCCN)C(=O)N[C@@H](CCCCN)C(=O)N[C@@H](Cc1ccc(O)cc1)C(=O)N[C@@H](CC(C)C)C(=O)N[C@@H](C)C(=O)N[C@@H](C)C(=O)N[C@H](C(=O)N[C@@H](CC(C)C)C(N)=O)C(C)C)C(C)C` [PACAP(5-27)] (H-FTDSYSRYRKQMAVKKYLAAVL-NH2) stands 150 nM. Then `CSCC[C@H](NC(=O)[C@H](CCC(N)=O)NC(=O)[C@H](CCCCN)NC(=O)[C@H](CCCN=C(N)N)NC(=O)[C@H](Cc1ccc(O)cc1)NC(=O)[C@H](CCCN=C(N)N)NC(=O)[C@H](CO)NC(=O)[C@H](Cc1ccc(O)cc1)NC(=O)[C@H](CO)NC(=O)[C@H](CC(=O)O)NC(=O)[C@@H](N)[C@@H](C)O)C(=O)N[C@@H](C)C(=O)N[C@H](C(=O)N[C@@H](CCCCN)C(=O)N[C@@H](CCCCN)C(=O)N[C@@H](Cc1ccc(O)cc1)C(=O)N[C@@H](CC(C)C)C(=O)N[C@@H](C)C(=O)N[C@@H](C)C(=O)N[C@H](C(=O)N[C@@H](CC(C)C)C(N)=O)C(C)C)C(C)C` [PACAP(6-27)] (H-TDSYSRYRKQMAVKKYLAAVL-NH2), with 100 nM. In the case of `CSCC[C@H](NC(=O)[C@H](CCC(N)=O)NC(=O)[C@H](CCCCN)NC(=O)[C@H](CCCN=C(N)N)NC(=O)[C@H](Cc1ccc(O)cc1)NC(=O)[C@H](CCCN=C(N)N)NC(=O)[C@H](CO)NC(=O)[C@H](Cc1ccc(O)cc1)NC(=O)[C@H](CO)NC(=O)[C@@H](N)CC(=O)O)C(=O)N[C@@H](C)C(=O)N[C@H](C(=O)N[C@@H](CCCCN)C(=O)N[C@@H](CCCCN)C(=O)N[C@@H](Cc1ccc(O)cc1)C(=O)N[C@@H](CC(C)C)C(=O)N[C@@H](C)C(=O)N[C@@H](C)C(=O)N[C@H](C(=O)N[C@@H](CC(C)C)C(N)=O)C(C)C)C(C)C` [PACAP(8-27)] (H-DSYSRYRKQMAVKKYLAAVL-NH2), the affinity corresponds to a Ki of 1300 nM. For `CSCC[C@H](NC(=O)[C@H](CCC(N)=O)NC(=O)[C@H](CCCCN)NC(=O)[C@H](CCCN=C(N)N)NC(=O)[C@H](Cc1ccc(O)cc1)NC(=O)[C@H](CCCN=C(N)N)NC(=O)[C@H](CO)NC(=O)[C@H](Cc1ccc(O)cc1)NC(=O)[C@H](CO)NC(=O)[C@@H](N)CC(=O)O)C(=O)N[C@@H](C)C(=O)N[C@H](C(=O)N[C@@H](CCCCN)C(=O)N[C@@H](CCCCN)C(=O)N[C@@H](Cc1ccc(O)cc1)C(=O)N[C@@H](CC(C)C)C(=O)N[C@@H](C)C(=O)N[C@@H](C)C(=O)N[C@H](C(=O)N[C@@H](CC(C)C)C(=O)NCC(=O)N[C@@H](CCCCN)C(=O)N[C@@H](CCCN=C(N)N)C(=O)N[C@@H](Cc1ccc(O)cc1)C(=O)N[C@@H](CCCCN)C(=O)N[C@@H](CCC(N)=O)C(=O)N[C@@H](CCCN=C(N)N)C(=O)N[C@H](C(=O)N[C@@H](CCCCN)C(=O)N[C@@H](CC(N)=O)C(=O)N[C@@H](CCCCN)C(N)=O)C(C)C)C(C)C)C(C)C` [PACAP(8-38)] (H-DSYSRYRKQMAVKKYLAAVLGKRYKQRVKNK-NH2), the inhibition constant Ki – broadly, a dissociation constant, usually derived from enzyme kinetics or from competition with a known ligand – turned out to be 30 nM. Consider `CSCC[C@H](NC(=O)[C@H](CCC(N)=O)NC(=O)[C@H](CCCCN)NC(=O)[C@H](CCCN=C(N)N)NC(=O)[C@H](Cc1ccc(O)cc1)NC(=O)[C@H](CCCN=C(N)N)NC(=O)[C@H](CO)NC(=O)[C@H](Cc1ccc(O)cc1)NC(=O)[C@@H](N)CO)C(=O)N[C@@H](C)C(=O)N[C@H](C(=O)N[C@@H](CCCCN)C(=O)N[C@@H](CCCCN)C(=O)N[C@@H](Cc1ccc(O)cc1)C(=O)N[C@@H](CC(C)C)C(=O)N[C@@H](C)C(=O)N[C@@H](C)C(=O)N[C@H](C(=O)N[C@@H](CC(C)C)C(=O)NCC(=O)N[C@@H](CCCCN)C(=O)N[C@@H](CCCN=C(N)N)C(=O)N[C@@H](Cc1ccc(O)cc1)C(=O)N[C@@H](CCCCN)C(=O)N[C@@H](CCC(N)=O)C(=O)N[C@@H](CCCN=C(N)N)C(=O)N[C@H](C(=O)N[C@@H](CCCCN)C(=O)N[C@@H](CC(N)=O)C(=O)N[C@@H](CCCCN)C(N)=O)C(C)C)C(C)C)C(C)C` [PACAP(9-38)] (H-SYSRYRKQMAVKKYLAAVLGKRYKQRVKNK-NH2), for which affinity was put at a Ki of 50 nM.

For the origin of these results see BindingDB's records for doi:10.1111/j.1432-1033.1992.tb17252.x (Universit&Eacute, 1992).
